pIC50: −log10 of the molar value. Read-outs that look alike come from different tables or passages of the source. Marks after values point to notes of the source that are not given here.
What was measured:
[1] = cited from earlier work
[2] = system: human serum protein α1-acid glycoprotein (AAG); parameters: method as in PMID 11230495; settings: cited from earlier work
mutant FLT3 = settings: in vitro; read-out: half-maximal inhibitory concentration (IC50), mutant FLT3; cited from earlier work
[3] = Midostaurin PK when administered with rifampicin; settings: for AUC(0-t) / Cmax / half-life / Tmax: human, plasma, oral, n = 20; for AUC(0-t): AUC0–last; for AUC(0-t) / Cmax: adjusted geometric mean; for Cmax: C max; for half-life: t 1/2, adjusted geometric mean; for Tmax: t max, median
Description: These endogenous molecules served as exploratory biomarkers for CYP3A4 activity in vivo [21, 22].
A point estimate and the corresponding 90 % CI for the treatment effect (test vs reference) were calculated. These were anti-logged to obtain the GMR and respective 90 % CI. […] The median difference was estimated with the Hodges–Lehmann estimator and its respective exact two-sided 90 % CI. All formal comparative statistical analyses were performed using SAS software.
(§1) The concentration of ketoconazole in plasma was assessed using a validated LC–MS/MS assay with an LLOQ of 50.0 ng/mL (WuXi Pharmatech Co, Ltd, China). The concentration of rifampicin in plasma was measured using a validated LC–MS/MS assay with an LLOQ of 5.0 ng/mL (SGS, Cephac Europe, SAS). Plasma concentrations of midazolam and its metabolite 1′-hydroxymidazolam, which is generated by CYP3A4 and CYP3A5 in humans, were measured using a validated LC–MS/MS assay with an LLOQ of ≈0.100 ng/mL (SGS, Cephac Europe, SAS). The plasma concentration of 4β-hydroxycholesterol was measured using a validated LC–MS/MS assay with an LLOQ of 3.0 ng/mL (SGS, Cephac Europe, SAS). The concentrations of 6β-hydroxycortisol and cortisol in urine were determined using validated LC–MS/MS assays with an LLOQ of 10.0 ng/mL for 6β-hydroxycortisol and 1.0 ng/mL for cortisol. The ratio of 6β-hydroxycortisol to cortisol was subsequently calculated (SGS, Cephac Europe, SAS). See Supplementary Table 2 for detailed bioanalytical methods for all 3 studies.

CYP3A4/5 = settings: in vitro; read-out: IC50, CYP3A4/5 activity (midazolam 1′-hydroxylation); cited from earlier work
[4] = Midostaurin PK when administered with ketoconazole; settings: for Cmax / Tmax: human, plasma, oral, n = 18; for Cmax: C max, adjusted geometric mean; for Tmax: t max, median
Description: According to the US Food and Drug Administration, ketoconazole 400 mg once daily is the recommended dose to evaluate DDIs involving CYP3A4 inhibition. [drawing 1]
Adverse events (AEs) were recorded during the study and up to 1 month (28 days) after the end of study. Volunteers remained at the clinic until AEs were common toxicity criteria (CTC) grade ≤1.
A point estimate and the corresponding 90 % CI for the treatment effect were calculated for the test treatment compared with the reference. These were anti-logged to obtain the point estimate and the 90 % CI for the geometric mean ratio (GMR) on the untransformed scale. […] All ANOVAs were performed using SAS software (SAS Institute Inc., Cary, NC, USA).
as §1

[5] = Midazolam PK when administered with midostaurin; settings: for change in AUCinf: day 3 (co-administration of midostaurin) vs day 1; for AUC0–inf, adjusted geometric mean / AUC0–last, adjusted geometric mean / C max, adjusted geometric mean / t max, median / AUC(0-inf) / AUC(0-t) / Cmax: n = 18; for AUC(0-inf): AUC0–inf; for AUC(0-inf) / AUC(0-t) / Cmax: adjusted geometric mean; for AUC(0-t): AUC0–last; for Cmax: C max
Text: (§2) Both inhibition and induction of midazolam clearance were investigated.
Similarly, blood and urine samples were taken on days 1, 3, 6, 7, 8, and 9 to measure the levels of 4β-hydroxycholesterol in plasma and the 6β-hydroxycortisol/cortisol ratio in urine, markers of CYP3A4 activity.
The PK parameters of midazolam and its metabolites (C max, t max, AUC0–last, AUCinf, and t 1/2) were derived using a noncompartmental method with the aid of WinNonLin 5.2. […] Following log transformation, the primary PK parameters were analyzed using a linear, mixed-effects model using the term of treatment as a fixed factor (reference, test 1, test 2) and subject as a random factor. A point estimate and the corresponding 90 % CI for the difference in test 1 versus reference and the difference in test 2 versus reference were derived from the respective contrasts of the model estimates and anti-logged to obtain the GMR and respective 90 % CI.
as §1

[6] = Safety and tolerability, midazolam study
Text: as §2

[7] = Placebo + midostaurin arm, rifampicin study
[8] = Placebo + midostaurin arm, ketoconazole study
[9] = day 3 (co-administration of midostaurin) vs midazolam alone day 1
[10] = day 8 (after repeated doses of midostaurin) vs day 1
[11] = plasma, Midazolam + midostaurin (day 3)
[12] = midazolam study: MZ 4 mg (day 1), MZ 4 mg + Mido 100 mg (day 3), Mido 50 mg twice daily (days 4–6)
[13] = midazolam study: second MZ 4 mg alone (day 8, after Mido)
[14] = human, plasma, oral, 4 mg, plasma, Midazolam (day 1)
[15] = human, plasma, oral, 4 mg, plasma, Midazolam (day 8)
[16] = human, plasma, oral, plasma, Midazolam + midostaurin (day 3)

Compound: CO[C@@H]1[C@H](N(C)C(=O)c2ccccc2)C[C@H]2O[C@]1(C)n1c3ccccc3c3c4c(c5c6ccccc6n2c5c31)C(=O)NC4O (mixture of isomers) [CGP52421]
- apparent elimination half-life (t 1/2) [1]: 16 to 31 days
- half-life [1]: > 1 month
- major pathway for elimination [1]: Fecal excretion
- bound to AAG [2]: 88–98%
- pIC50 (mutant FLT3): 6.23
- decrease in exposure (AUClast) in midostaurin + rifampicin arm ([3]; compared with midostaurin alone): 2.45 fold
- AUC(0-t) [3, 7]: 14600 ng·h/mL
- AUC(0-t) ([3]; Rifampicin + midostaurin arm): 5960 ng·h/mL
- Cmax [3, 7]: 196 ng/mL
- Cmax ([3]; Rifampicin + midostaurin arm): 128 ng/mL
- half-life [3, 7]: 7.29 days
- half-life ([3]; Rifampicin + midostaurin arm): 3.63 days
- Tmax [3, 7]: 3 h
- Tmax ([3]; Rifampicin + midostaurin arm): 2.51 h
- median t max prolonged in midostaurin + placebo arm compared with midostaurin + rifampicin arm ([3]; in vivo): 1.2 fold
- pIC50 (CYP3A4/5): 5.82
- Cmax ([4]; Ketoconazole + midostaurin arm): 70.9 ng/mL
- Cmax [4, 8]: 145 ng/mL
- Tmax ([4]; Ketoconazole + midostaurin arm): 120 h
- Tmax [4, 8]: 2 h
- t max, Hodges–Lehmann estimate of median difference (90 % distribution-free CI) ([4]; ketoconazole + midostaurin vs placebo + midostaurin): 116.7 (93.9, 117.9) h

Compound: OCc1ncc2n1-c1ccc(Cl)cc1C(c1ccccc1F)=NC2 [1′-Hydroxymidazolam]
- change in AUCinf [5]: No change
- average decrease in C max [5, 9]: 1.2 fold
- t max, Hodges–Lehmann estimate of median difference (90 % distribution-free CI) ([5]; day 3/day 1 comparison): 0.13 (−0.50 to 1.50)^b h
- average decrease in AUCinf [5, 10]: 1.3 fold
- average decrease in C max [5, 10]: 1.3 fold
- t max, Hodges–Lehmann estimate of median difference (90 % distribution-free CI) ([5]; day 8/day 1 comparison): 0.01 (−0.23 to 0.26)^c h
- AUC0–inf, adjusted geometric mean ([5]; plasma, Midazolam (day 1), midazolam 4 mg alone): 18.18 ng·h/mL
- AUC0–last, adjusted geometric mean ([5]; plasma, Midazolam (day 1)): 15.91 ng·h/mL
- C max, adjusted geometric mean ([5]; plasma, Midazolam (day 1)): 5.83 ng/mL
- t max, median ([5]; plasma, Midazolam (day 1)): 30 min
- AUC0–inf, adjusted geometric mean ([5]; plasma, Midazolam (day 8), midazolam 4 mg alone after repeated midostaurin): 13.74 ng·h/mL
- AUC0–last, adjusted geometric mean ([5]; plasma, Midazolam (day 8)): 12.57 ng·h/mL
- C max, adjusted geometric mean ([5]; plasma, Midazolam (day 8)): 4.37 ng/mL
- t max, median ([5]; plasma, Midazolam (day 8)): 30 min
- AUC0–inf, adjusted geometric mean ([5]; plasma, Midazolam + midostaurin (day 3), midazolam 4 mg + midostaurin 100 mg): 18.54 ng·h/mL
- AUC0–last, adjusted geometric mean [5, 11]: 15.87 ng·h/mL
- C max, adjusted geometric mean [5, 11]: 4.76 ng/mL

Compound: Cc1ncc2n1-c1ccc(Cl)cc1C(c1ccccc1F)=NC2 [Midazolam]
- Adverse event: Abdominal distension [6, 12]: 0 n (%)
- Adverse event: Any preferred term [6, 12]: 3 (15.0) n (%)
- Adverse event: Back pain [6, 12]: 0 n (%)
- Adverse event: Chromaturia [6, 12]: 0 n (%)
- Adverse event: Cough [6, 12]: 0 n (%)
- Adverse event: Diarrhea [6, 12]: 0 n (%)
- Adverse event: Discolored feces [6, 12]: 0 n (%)
- Adverse event: Dizziness [6, 12]: 0 n (%)
- Adverse event: Dry skin [6, 12]: 0 n (%)
- Adverse event: Dyspepsia [6, 12]: 0 n (%)
- Adverse event: Feeling cold [6, 12]: 0 n (%)
- Adverse event: Feeling hot [6, 12]: 0 n (%)
- Adverse event: Flatulence [6, 12]: 0 n (%)
- Adverse event: Headache [6, 12]: 2 (10.0) n (%)
- Adverse event: Hot flush [6, 12]: 0 n (%)
- Adverse event: Nasopharyngitis [6, 12]: 0 n (%)
- Adverse event: Nausea [6, 12]: 0 n (%)
- Adverse event: Palpitations [6, 12]: 0 n (%)
- Adverse event: Pharyngolaryngeal pain [6, 12]: 0 n (%)
- Adverse event: Restlessness [6, 12]: 0 n (%)
- Adverse event: Rhinitis [6, 12]: 0 n (%)
- Adverse event: Sleep disorder [6, 12]: 0 n (%)
- Adverse event: Somnolence [6, 12]: 1 (5.0) n (%)
- Adverse event: Vomiting [6, 12]: 0 n (%)
- Adverse event: Abdominal distension [6, 13]: 0 n (%)
- Adverse event: Any preferred term [6, 13]: 3 (16.7) n (%)
- Adverse event: Back pain [6, 13]: 0 n (%)
- Adverse event: Chromaturia [6, 13]: 0 n (%)
- Adverse event: Cough [6, 13]: 0 n (%)
- Adverse event: Diarrhea [6, 13]: 0 n (%)
- Adverse event: Discolored feces [6, 13]: 0 n (%)
- Adverse event: Dizziness [6, 13]: 0 n (%)
- Adverse event: Dry skin [6, 13]: 0 n (%)
- Adverse event: Dyspepsia [6, 13]: 0 n (%)
- Adverse event: Feeling cold [6, 13]: 0 n (%)
- Adverse event: Feeling hot [6, 13]: 0 n (%)
- Adverse event: Flatulence [6, 13]: 0 n (%)
- Adverse event: Headache [6, 13]: 2 (11.1) n (%)
- Adverse event: Hot flush [6, 13]: 0 n (%)
- Adverse event: Nasopharyngitis [6, 13]: 1 (5.6) n (%)
- Adverse event: Nausea [6, 13]: 0 n (%)
- Adverse event: Palpitations [6, 13]: 0 n (%)
- Adverse event: Pharyngolaryngeal pain [6, 13]: 0 n (%)
- Adverse event: Restlessness [6, 13]: 0 n (%)
- Adverse event: Rhinitis [6, 13]: 0 n (%)
- Adverse event: Sleep disorder [6, 13]: 0 n (%)
- Adverse event: Somnolence [6, 13]: 0 n (%)
- Adverse event: Vomiting [6, 13]: 0 n (%)
- change in AUCinf [5]: No change
- average decrease in C max [5, 9]: 1.2 fold
- average decrease in AUCinf [5, 10]: 1.1 fold
- average decrease in C max [5, 10]: 1.1 fold
- t max, Hodges–Lehmann estimate of median difference (90 % distribution-free CI) ([5]; day 8/day 1 comparison): 0.12 (−0.12 to 0.26)^c h
- Tmax ([5]; human, plasma, oral, 4 mg): 30 min
- AUC(0-inf) ([5]; human, plasma, oral, 4 mg, plasma, Midazolam (day 1), midazolam 4 mg alone): 49.7 ng·h/mL
- AUC(0-inf) ([5]; human, plasma, oral, 4 mg, plasma, Midazolam (day 8), midazolam 4 mg alone after repeated midostaurin): 47 ng·h/mL
- AUC(0-t) [5, 14]: 43.1 ng·h/mL
- AUC(0-t) [5, 15]: 40.8 ng·h/mL
- Cmax [5, 14]: 13.5 ng/mL
- Cmax [5, 15]: 12.2 ng/mL
- AUC(0-inf) ([5]; human, plasma, oral, plasma, Midazolam + midostaurin (day 3), midazolam 4 mg + midostaurin 100 mg): 49.6 ng·h/mL
- AUC(0-t) [5, 16]: 40.2 ng·h/mL
- Cmax [5, 16]: 11 ng/mL
- t max, median ([5]; plasma, Midazolam (day 8)): 30 min
